Data as given in patent US20120135995A1, “FUNGICIDAL DIPHENYL-SUBSTITUTED PYRIDAZINES” (E.I. Dupont de Nemours and Company, priority 2009, published 2012).

Tests used:
Septoria tritici = assay: Test D: wheat seedlings sprayed, next day inoculated with Septoria tritici (wheat leaf blotch), visual disease rating; assay type: in vivo; conditions: sprayed day before inoculation; for Test D rating (disease control) / pest or weed control at 200 ppm: 200 ppm test suspension
From the text: (§1) General protocol for preparing test suspensions for Tests A-F: the test compounds were first dissolved in acetone in an amount equal to 3% of the final volume and then suspended at the desired concentration (in ppm) in acetone and purified water (50/50 mix) containing 250 ppm of the surfactant Trem® 014 (polyhydric alcohol esters). The resulting test suspensions were then used in Tests A-F. Spraying a 200 ppm test suspension to the point of run-off on the test plants was the equivalent of a rate of 500 g/ha. An asterisk “*” next to the rating value indicates a 40 ppm test suspension.
(§2) The test suspension was sprayed to the point of run-off on wheat seedlings. The following day the seedlings were inoculated with a spore suspension of Septoria tritici (the causal agent of wheat leaf blotch) and incubated in saturated atmosphere at 24° C. for 48 h, and then moved to a growth chamber at 20° C. for 19 days, after which time visual disease ratings were made.
(§3) Results for Tests A-F are given in Table A. In the Table, a rating of 100 indicates 100% disease control and a rating of 0 indicates no disease control (relative to the controls). A dash (-) indicates no test results. All results are for 200 ppm except where followed by “*”, which indicates 40 ppm.

[1] = system: Puccinia recondita f. sp. tritici; assay: Test E1: wheat seedlings inoculated with Puccinia recondita f. sp. tritici (wheat leaf rust), sprayed afterwards, visual disease rating; assay type: in vivo; conditions: sprayed after inoculation; for Test E1 rating (disease control) / pest or weed control at 200 ppm: 200 ppm test suspension
From the text: as §1
Wheat seedlings were inoculated with a spore suspension of Puccinia recondita f. sp. tritici (the causal agent of wheat leaf rust) and incubated in a saturated atmosphere at 20° C. for 24 h, and then moved to a growth chamber at 20° C. for 2 days. At the end of this time the test suspension was sprayed to the point of run-off on the wheat seedlings, and then the seedlings were moved to a growth chamber at 20° C. for 6 days, after which time visual disease ratings were made.
as §3

[2] = system: Puccinia recondita f. sp. tritici; assay: Test E2: wheat seedlings sprayed, next day inoculated with Puccinia recondita f. sp. tritici (wheat leaf rust), visual disease rating; assay type: in vivo; conditions: sprayed day before inoculation; for Test E2 rating (disease control) / pest or weed control at 200 ppm: 200 ppm test suspension
From the text: as §1
The test suspension was sprayed to the point of run-off on wheat seedlings. The following day the seedlings were inoculated with a spore suspension of Puccinia recondita f. sp. tritici (the causal agent of wheat leaf rust) and incubated in a saturated atmosphere at 20° C. for 24 h, and then moved to a growth chamber at 20° C. for 7 days, after which time visual disease ratings were made.
as §3

Botrytis cinerea = assay: Test A: tomato seedlings sprayed, next day inoculated with Botrytis cinerea (tomato Botrytis), visual disease rating; assay type: in vivo; conditions: sprayed day before inoculation; for Test A rating (disease control) / pest or weed control at 200 ppm: 200 ppm test suspension
From the text: as §1
as §2, with “tomato” for “wheat”, “Botrytis cinerea” for “Septoria tritici”, “tomato Botrytis)” for “wheat leaf blotch)”, “20°” for “24°”, “24°” for “20°”, “3” for “19”
as §3

Erysiphe graminis = assay: Test F: wheat seedlings sprayed, next day inoculated with Erysiphe graminis (wheat powdery mildew), visual disease rating; assay type: in vivo; conditions: sprayed day before inoculation; for Test F rating (disease control) / pest or weed control at 200 ppm: 200 ppm test suspension
From the text: as §1
The test suspension was sprayed to the point of run-off on wheat seedlings. The following day the seedlings were inoculated with a spore dust of Erysiphe graminis, (the causal agent of wheat powdery mildew) and incubated in a growth chamber at 20° C. for 8 days, after which time visual disease ratings were made.
as §3

Septoria nodorum = assay: Test C: wheat seedlings sprayed, next day inoculated with Septoria nodorum (wheat glume blotch), visual disease rating; assay type: in vivo; conditions: sprayed day before inoculation; for Test C rating (disease control) / pest or weed control at 200 ppm: 200 ppm test suspension
From the text: as §1
The test suspension was sprayed to the point of run-off on wheat seedlings. The following day the seedlings were inoculated with a spore suspension of Septoria nodorum (the causal agent of wheat glume blotch) and incubated in a saturated atmosphere at 24° C. for 48 h, and then moved to a growth chamber at 20° C. for 6 days, after which time visual disease ratings were made.
as §3

Alternaria solani = assay: Test B: tomato seedlings sprayed, next day inoculated with Alternaria solani (tomato early blight), visual disease rating; assay type: in vivo; conditions: sprayed day before inoculation; for Test B rating (disease control) / pest or weed control at 200 ppm: 200 ppm test suspension
From the text: as §1
The test suspension was sprayed to the point of run-off on tomato seedlings. The following day the seedlings were inoculated with a spore suspension of Alternaria solani (the causal agent of tomato early blight) and incubated in a saturated atmosphere at 27° C. for 48 h, and then moved to a growth chamber at 20° C. for 5 days, after which time visual disease ratings were made.
as §3

[3] = Puccinia recondita, 40 ppm test suspension (*)

## COc1cc(OC)cc(-c2c(CCl)nnc(Cl)c2-c2c(F)cccc2F)c1 [Compound 26, 3-chloro-6-(chloromethyl)-4-(2,6-difluorophenyl)-5-(3,5-dimethoxyphenyl)-pyridazine]
Septoria tritici; Zymoseptoria tritici, 40 ppm test suspension (*)
  pest or weed control at 40 ppm: 99%
[1]; [3]
  pest or weed control at 40 ppm: 0%
[2]; [3]
  pest or weed control at 40 ppm: 97%
Botrytis cinerea; Botrytis cinerea, 40 ppm test suspension (*)
  pest or weed control at 40 ppm: 99%
Erysiphe graminis; Blumeria graminis, 40 ppm test suspension (*)
  pest or weed control at 40 ppm: 0%
Septoria nodorum; Parastagonospora nodorum, 40 ppm test suspension (*)
  pest or weed control at 40 ppm: 0%
Alternaria solani; Alternaria solani, 40 ppm test suspension (*)
  pest or weed control at 40 ppm: 0%

## COc1cc(OC)cc(-c2c(C(C)C)nnc(C)c2-c2c(F)cc(F)cc2F)c1 [Compound 18]
Septoria tritici
  Test D rating (disease control): 99%
[1]
  Test E1 rating (disease control): 100%
[2]
  Test E2 rating (disease control): 100%
Botrytis cinerea
  Test A rating (disease control): 100%
Erysiphe graminis
  Test F rating (disease control): 100%
Septoria nodorum
  Test C rating (disease control): 82%
Alternaria solani
  Test B rating (disease control): 99%

## COc1cc(OC)cc(-c2c(C)nnc(F)c2-c2c(F)cccc2F)c1 [Compound 33, 4-(2,6-difluorophenyl)-3-fluoro-5-(3,5-dimethoxyphenyl)-6-methylpyridazine]
Septoria tritici; Zymoseptoria tritici
  pest or weed control at 200 ppm: 100%
[1]; Puccinia recondita
  pest or weed control at 200 ppm: 60%
[2]; Puccinia recondita
  pest or weed control at 200 ppm: 100%
Botrytis cinerea; Botrytis cinerea
  pest or weed control at 200 ppm: 99%
Erysiphe graminis; Blumeria graminis
  pest or weed control at 200 ppm: 99%
Septoria nodorum; Parastagonospora nodorum
  pest or weed control at 200 ppm: 99%
other
  melting point: 150 to 151 °C
Alternaria solani; Alternaria solani
  pest or weed control at 200 ppm: 100%

## COc1cc(OC)cc(-c2c(C)nnc(C)c2-c2c(F)cccc2Cl)c1 [Compound 39]
Septoria tritici
  Test D rating (disease control): 100%
[1]
  Test E1 rating (disease control): 99%
[2]
  Test E2 rating (disease control): 100%
Botrytis cinerea
  Test A rating (disease control): 100%
Erysiphe graminis
  Test F rating (disease control): 98%
Septoria nodorum
  Test C rating (disease control): 99%
Alternaria solani
  Test B rating (disease control): 99%

## COc1cc(OC)c(Cl)c(-c2c(C)nnc(Cl)c2-c2c(F)cccc2Cl)c1Cl [Compound 42]
Septoria tritici
  Test D rating (disease control): 60%
[1]
  Test E1 rating (disease control): 0%
[2]
  Test E2 rating (disease control): 89%
Botrytis cinerea
  Test A rating (disease control): 0%
Erysiphe graminis
  Test F rating (disease control): 42%
Septoria nodorum
  Test C rating (disease control): 0%
Alternaria solani
  Test B rating (disease control): 0%

## COc1cc(-c2c(C)nnc(Cl)c2-c2ccc(F)cc2F)cc(OC)c1Cl [Compound 45]
Septoria tritici
  Test D rating (disease control): 100%
[1]
  Test E1 rating (disease control): 100%
[2]
  Test E2 rating (disease control): 100%
Botrytis cinerea
  Test A rating (disease control): 100%
Erysiphe graminis
  Test F rating (disease control): 100%
Septoria nodorum
  Test C rating (disease control): 97%
Alternaria solani
  Test B rating (disease control): 100%

## COc1cc(OC)c(Cl)c(-c2c(C)nnc(F)c2-c2c(F)cccc2F)c1 [Compound 36]
Septoria tritici
  Test D rating (disease control): 100%
[1]
  Test E1 rating (disease control): 100%
[2]
  Test E2 rating (disease control): 100%
Botrytis cinerea
  Test A rating (disease control): 99%
Erysiphe graminis
  Test F rating (disease control): 100%
Septoria nodorum
  Test C rating (disease control): 60%
Alternaria solani
  Test B rating (disease control): 100%

## COc1cc(OC)cc(-c2c(CC#N)nnc(Cl)c2-c2c(F)cccc2F)c1 [Compound 27, 6-chloro-5-(2,6-difluorophenyl)-4-(3,5-dimethoxyphenyl)-3-pyridazine-acetonitrile]
Septoria tritici; Zymoseptoria tritici
  pest or weed control at 200 ppm: 100%
[1]; Puccinia recondita
  pest or weed control at 200 ppm: 0%
[2]; Puccinia recondita
  pest or weed control at 200 ppm: 100%
Botrytis cinerea; Botrytis cinerea
  pest or weed control at 200 ppm: 100%
Erysiphe graminis; Blumeria graminis
  pest or weed control at 200 ppm: 98%
Septoria nodorum; Parastagonospora nodorum
  pest or weed control at 200 ppm: 100%
Alternaria solani; Alternaria solani
  pest or weed control at 200 ppm: 99%

## COc1cc(OC)c(Cl)c(-c2c(C)nnc(Cl)c2-c2c(F)cccc2Cl)c1 [Compound 41]
Septoria tritici
  Test D rating (disease control): 100%
[1]
  Test E1 rating (disease control): 86%
[2]
  Test E2 rating (disease control): 100%
Botrytis cinerea
  Test A rating (disease control): 99%
Erysiphe graminis
  Test F rating (disease control): 100%
Septoria nodorum
  Test C rating (disease control): 0%
Alternaria solani
  Test B rating (disease control): 99%
